Among the test systems are A498 renal; CCRF-CEM leukemia; HCC-2998 colon; HCT-116 colon; HCT-15 colon; IGROV1 ovarian; MOLT-4 leukemia; NCI-H226 lung; NCI-H23 lung; RXF 393 renal; SK-MEL-28 melanoma; SK-MEL-5 melanoma; SNB-75 CNS; UACC-257 melanoma; UACC-62 melanoma; UO-31 renal; DU-145 prostate.
Holding throughout (test): NCI tumour cell line growth inhibition, 48 h

In PubChem BioAssay (NCI) one finds TGI data, which are given here for 9 molecules.

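Method: 48-hour compound exposure of cells in 96-well plates, five concentrations, linear interpolation of endpoints. TGI marks complete inhibition of growth.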

On to `COC(=O)N/N=C(/Cc1occc(=O)c1O)C(=O)Nc1ccc([N+](=O)[O-])cc1[N+](=O)[O-]`, for which the TGI in the test with A498 renal, in the test on CCRF-CEM leukemia, with HCC-2998 colon, in the test with HCT-116 colon, in the test on HCT-15 colon and in the test on IGROV1 ovarian was above 100 µM in each case. Also, the TGI with MOLT-4 leukemia, in the test with NCI-H226 lung, with NCI-H23 lung, in the test with RXF 393 renal, in the test with SK-MEL-28 melanoma and in the test on SK-MEL-5 melanoma was above 100 µM throughout. The TGI with SNB-75 CNS, in the test on UACC-257 melanoma, in the test with UACC-62 melanoma and with UO-31 renal was above 100 µM each time.
Turning to `CN(C)c1nc(=NCc2cccnc2)ss1`, the TGI with CCRF-CEM leukemia, in the test with DU-145 prostate, with HCT-15 colon, in the test with IGROV1 ovarian, in the test on MOLT-4 leukemia and in the test on NCI-H23 lung was above 10 µM each time. In addition, the TGI in the test on RXF 393 renal, in the test on SK-MEL-28 melanoma, in the test on SK-MEL-5 melanoma, with SNB-75 CNS, in the test with UACC-257 melanoma and in the test with UACC-62 melanoma was above 10 µM throughout.
With `CC/C(SC)=[N+](\C)[O-]`, the TGI with A498 renal was above 100 µM; with CCRF-CEM leukemia it was 23.2 µM; in the test on HCC-2998 colon it was above 100 µM; with HCT-116 colon it was above 68.4 µM; in the test on HCT-15 colon, above 100 µM; with IGROV1 ovarian it was above 100 µM. Also, the TGI in the test with MOLT-4 leukemia is 79.3 µM; in the test on NCI-H226 lung it was above 100 µM; in the test with NCI-H23 lung it was above 100 µM; in the test on RXF 393 renal, above 100 µM; in the test on SK-MEL-28 melanoma it was above 100 µM; with SK-MEL-5 melanoma, above 100 µM. Moreover, the TGI in the test on SNB-75 CNS, in the test with UACC-257 melanoma, in the test on UACC-62 melanoma and with UO-31 renal was above 100 µM in each case.
Regarding `O=C(N/N=C(\c1nc2ccc(Cl)cc2[nH]c1=O)C(O)c1ccccc1Cl)c1ccncc1` (stereo unspecified), the TGI in the test with A498 renal, with CCRF-CEM leukemia, with HCC-2998 colon, in the test on HCT-116 colon, in the test on HCT-15 colon and in the test on IGROV1 ovarian was above 100 µM each time. Besides, the TGI with MOLT-4 leukemia, in the test with NCI-H226 lung, in the test with NCI-H23 lung, in the test on RXF 393 renal, with SK-MEL-28 melanoma and in the test with SK-MEL-5 melanoma was above 100 µM in each case. The TGI with SNB-75 CNS, with UACC-257 melanoma, with UACC-62 melanoma and in the test with UO-31 renal was above 100 µM in each case.
Turning to `C#Cc1cc(CN(CC(=O)OC(C)(C)C)CC(=O)OC(C)(C)C)nc(CN(CC(=O)OC(C)(C)C)CC(=O)OC(C)(C)C)c1`, the TGI in the test with A498 renal is 76.1 µM; in the test with CCRF-CEM leukemia it was 7.93 µM; in the test with HCC-2998 colon it was 33.9 µM; in the test on HCT-15 colon, above 100 µM; in the test on IGROV1 ovarian it was 26.7 µM; with MOLT-4 leukemia, 6.33 µM. For the same molecule, the TGI in the test on NCI-H226 lung turned out to be 7.34 µM; in the test on NCI-H23 lung, 26.3 µM; in the test with RXF 393 renal, 14.2 µM; in the test with SK-MEL-28 melanoma, 93.8 µM; in the test with SK-MEL-5 melanoma, 11.3 µM; with SNB-75 CNS, 43.4 µM. Also, the TGI in the test with UACC-257 melanoma was determined as 9.15 µM; in the test on UACC-62 melanoma it was 36.5 µM; in the test on UO-31 renal it was 26 µM.
For the molecule `CCCc1c(C(=O)OCC)[nH]c(C(=O)CCC(=O)c2[nH]c(C(=O)OCC)c(CCC)c2C(=O)OCC)c1C(=O)OCC`, the TGI in the test with A498 renal, with CCRF-CEM leukemia, in the test with HCC-2998 colon, in the test on HCT-116 colon, in the test with HCT-15 colon and with IGROV1 ovarian was above 100 µM in each case. The TGI with MOLT-4 leukemia, in the test on NCI-H226 lung, with NCI-H23 lung, in the test with RXF 393 renal, in the test on SK-MEL-28 melanoma and in the test with SK-MEL-5 melanoma was above 100 µM throughout. In addition, the TGI was 62.5 µM in the test with SNB-75 CNS, above 100 µM with UACC-257 melanoma, above 100 µM with UACC-62 melanoma and above 100 µM in the test with UO-31 renal.
As for `CCN(CC)CCCCC1CCN(CC(=O)N2c3cc(Cl)ccc3NC(=O)CC2C)CC1` (stereo unspecified), the TGI with A498 renal, in the test on CCRF-CEM leukemia, in the test on HCC-2998 colon, in the test on HCT-116 colon, in the test on HCT-15 colon and in the test with IGROV1 ovarian was above 100 µM each time. Also, the TGI in the test with MOLT-4 leukemia, in the test with NCI-H226 lung, in the test on NCI-H23 lung, in the test on SK-MEL-28 melanoma, with SK-MEL-5 melanoma and in the test on UACC-257 melanoma was above 100 µM throughout. In addition, the TGI with UACC-62 melanoma and in the test with UO-31 renal was above 100 µM in each case.
For `CC(C)C1COC(c2ccc3ccccc3c2-c2c(O[Si](C)(C)C(C)(C)C)ccc3ccccc23)=N1` (stereo unspecified), the TGI with A498 renal was found to be 36.2 µM; in the test with CCRF-CEM leukemia, 35.5 µM; with HCC-2998 colon, 28.9 µM; with HCT-15 colon, 46.7 µM; in the test on IGROV1 ovarian, 35.4 µM; with MOLT-4 leukemia it was 32 µM. The TGI came out at 26.4 µM in the test with NCI-H226 lung; 30.7 µM in the test on NCI-H23 lung; 34.7 µM in the test with RXF 393 renal; 33.8 µM with SK-MEL-28 melanoma; 31.8 µM in the test on SK-MEL-5 melanoma; 32.5 µM with SNB-75 CNS. The TGI stood at 34.1 µM with UACC-257 melanoma, 30.9 µM in the test with UACC-62 melanoma and 28.2 µM with UO-31 renal.
As to `CCOC(=O)Nn1c(C)cc(C(=O)OC)c1C`, the TGI in the test with A498 renal, with CCRF-CEM leukemia, with HCC-2998 colon, with HCT-116 colon, with HCT-15 colon and in the test with IGROV1 ovarian was above 100 µM each time. For the same molecule, the TGI with MOLT-4 leukemia, with NCI-H226 lung, in the test on NCI-H23 lung, in the test on RXF 393 renal, with SK-MEL-28 melanoma and with SK-MEL-5 melanoma was above 100 µM each time. Besides, the TGI with SNB-75 CNS, in the test on UACC-257 melanoma, in the test with UACC-62 melanoma and in the test with UO-31 renal was above 100 µM in each case.
